Measurements: PubChem BioAssay (NCI)
Values after ≈ are worked out from the molar mass of the structure shown. Values joined by “and” are separate entries in the source; they are usually repeats but may differ in a detail not shown here. Equal values may be shown once.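 Growth conditions: 96-well plates. Treatment: test compound, 48 hours, 5 concentrations. Analysis: linear interpolation between bracketing concentrations; unreached endpoints set to highest concentration. At the GI50, growth is halved. TGI denotes the concentration required for complete inhibition of growth.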

Assays:
Assay in all cases: inhibition of tumour cell growth, NCI panel, 48 h
COLO 205 colon = system: COLO 205 colon
KM12 colon = system: KM12 colon
T-47D breast = system: T-47D breast
UO-31 renal = system: UO-31 renal
SF-295 CNS = system: SF-295 CNS
SK-OV-3 ovarian = system: SK-OV-3 ovarian
RPMI-8226 leukemia = system: RPMI-8226 leukemia
SF-539 CNS = system: SF-539 CNS

Row | Structure (SMILES) | TGI (COLO 205 colon) | TGI (KM12 colon) | TGI (T-47D breast) | TGI (UO-31 renal) | TGI (SF-295 CNS) | TGI (SK-OV-3 ovarian) | TGI (RPMI-8226 leukemia) | TGI (SF-539 CNS) | GI50 (COLO 205 colon) | GI50 (KM12 colon) | GI50 (T-47D breast) [µg/mL] | GI50 (UO-31 renal) [µg/mL] | GI50 (SF-295 CNS) [µg/mL] | GI50 (SK-OV-3 ovarian) [µg/mL] | GI50 (RPMI-8226 leukemia) [µg/mL] | GI50 (SF-539 CNS)
1 | NC(=O)N/N=C(/CC1C(=O)Oc2ccccc21)c1ccccc1O (stereo unspecified) | > 100 µM | > 100 µM | > 100 µM | > 100 µM | > 100 µM | > 100 µM | 34.9 µM | 91.1 µM |  |  |  |  |  |  |  | 
2 | O=C(O)Cc1ccc(Nc2nc3cc(C(F)(F)F)ccc3nc2C(=O)O)cc1 | > 100 µM | > 100 µM | > 100 µM | > 100 µM | > 100 µM | > 100 µM |  | > 100 µM |  |  |  |  |  |  |  | 
3 | OC1(c2ccc(-c3ccccc3)cc2)c2ccccc2C2=NCCN21 (stereo unspecified) | 48.3 µM | 54.4 µM | > 100 µM | > 100 µM | > 100 µM | > 100 µM | > 100 µM |  |  |  |  |  |  |  |  | 
4 | CS(=O)(=O)c1nc(-c2cc3c(c(S(C)(=O)=O)n2)CCCC3)cc2c1CCCCC2 | > 100 µM | > 100 µM |  |  | > 100 µM | > 100 µM | > 100 µM |  |  |  |  |  |  |  |  | 
5 | COC(=O)CCC1=C(CC(=O)OC)C(C)(OC)N=C1NC(=O)OCc1ccccc1 (stereo unspecified) | > 100 µM | > 100 µM | > 100 µM | > 100 µM | > 100 µM | > 100 µM | > 100 µM | > 100 µM |  |  |  |  |  |  |  | 
6 | O=C(O)C(O)C(O)C(=O)O (stereo unspecified) | > 100 µM | > 100 µM | > 100 µM | > 100 µM | > 100 µM | > 100 µM | > 100 µM | > 100 µM |  |  |  |  |  |  |  | 
7 | CC(=O)c1c(C)nc(SSc2nc(C)c(C(C)=O)c(-c3ccc(Cl)cc3)c2C#N)c(C#N)c1-c1ccc(Cl)cc1 | > 150 µg/mL | > 150 µg/mL | > 150 µg/mL | > 150 µg/mL | > 150 µg/mL | > 150 µg/mL | > 150 µg/mL | > 150 µg/mL | > 150 µg/mL | 133 µg/mL | 36.1 (≈ 59.8 µM) | 82 (≈ 136 µM) | 50.2 (≈ 83.1 µM) | 29.3 (≈ 48.6 µM) | > 150 | 47.7 µg/mL
8 | COC(CN(C(C)=O)C1CCC2(SCCS2)c2[nH]c3ccccc3c21)OC (stereo unspecified) | > 100 µM | > 100 µM |  | > 100 µM |  |  | > 100 µM | > 100 µM |  |  |  |  |  |  |  | 
9 | O=C1C(Br)=C(c2ccccc2)O/C1=C/C(=O)c1ccc(Br)cc1 | > 100 µM | > 100 µM | > 100 µM | > 100 µM |  |  | 62.7 µM | > 100 µM |  |  |  |  |  |  |  | 
10 | CCOC(=O)c1[nH]c(Br)c(-c2ccc(OC)c(OC)c2)c1Br | 1.07 µM |  | 72.5 µM | 9.96 µM | 0.0356 µM |  | 16.6 µM | 0.0428 µM and 0.0128 µM | 0.02 µM | 0.0172 µM |  |  |  |  |  | 0.0116 µM
11 | [N-]=[N+]=NC1OC(=O)C(Cl)=C1N=P(c1ccccc1)(c1ccccc1)c1ccccc1 (stereo unspecified) | > 10 µM | > 10 µM | > 10 µM | > 10 µM | > 10 µM | > 10 µM | 8.33 µM | > 10 µM |  |  |  |  |  |  |  | 
12 | Cc1cc2/c(=C\c3ccc(N(C)C)cc3)c3ccccc3n2[n+]1C | 0.354 µM | 5.54 µM | 3.76 µM | 15.3 µM | 12.8 µM | 14.3 µM | 0.738 µM | 5.61 µM |  |  |  |  |  |  |  | 
13 | CCOC(=O)C1=C(O)C2C3CC4C2C(O)=C(C(=O)OCC)C2C1C3C42 (stereo unspecified) | > 100 µM | > 100 µM | > 100 µM | > 100 µM | > 100 µM | > 100 µM | > 100 µM | > 100 µM |  |  |  |  |  |  |  | 
14 | COc1c(/C=C/C(C)(C)O)cc(C2CC(=O)c3c(O)cc(O)cc3O2)cc1CC=C(C)C (stereo unspecified) | 17.7 µM | 20.7 µM | 33.2 µM | 1.6 µM | 14.8 µM | 17.6 µM | 28.4 µM | 17.4 µM |  |  |  |  |  |  |  | 
15 | CN(C(=O)Cc1ccccc1)n1cnn(CC(=O)OC(C)(C)C)c1=S | > 10 µM | > 10 µM | > 10 µM | > 10 µM | > 10 µM | > 10 µM | > 10 µM | > 10 µM |  |  |  |  |  |  |  | 
16 | Cc1ccc(/C=N/n2c(-c3ccc(C)cc3)n[nH]c2=O)cc1 | > 100 µM | > 100 µM | > 100 µM | > 100 µM | > 100 µM | 66.9 µM | > 100 µM | > 100 µM |  |  |  |  |  |  |  | 
17 | Cc1ccc(SC2C(=O)C3CC(OCc4ccccc4)C2(C)C3(C)C)cc1 (stereo unspecified) |  | > 100 µM | > 100 µM | > 100 µM | > 100 µM | > 100 µM |  | > 100 µM |  |  |  |  |  |  |  | 
18 | COc1cc2c(cc1OC)C(=O)N(c1ccc(O)cc1)C2=O | > 100 µM |  | > 100 µM |  | > 100 µM | > 100 µM | > 100 µM | > 100 µM |  |  |  |  |  |  |  | 
19 | COC(=O)C1Cc2cc3c(cc2C1=O)CCCC3 (stereo unspecified) | > 100 µM | > 100 µM | > 100 µM | > 100 µM | > 100 µM | > 100 µM | > 100 µM | > 100 µM |  |  |  |  |  |  |  | 
20 | Cc1nc(CC#N)n[nH]1 | > 100 µM | > 100 µM |  | > 100 µM | > 100 µM | > 100 µM | > 100 µM | > 100 µM |  |  |  |  |  |  |  | 
21 | C#C/C=C\CCCC/C=C\C#CC#CCCCC#CC#C[C@H](COS(=O)(=O)O)OS(=O)(=O)O | > 100 µM | > 100 µM | > 100 µM | > 100 µM | > 100 µM |  | > 100 µM | > 100 µM |  |  |  |  |  |  |  | 
22 | CC[C@@]1(O)C(=O)OCc2c1cc1n(c2=O)Cc2c-1nc1ccccc1c2/C=N\NC(=O)C1CCCN1 (stereo partly specified) | > 100 µM | > 44.6 µM | > 100 µM | 8.27 µM | 18.6 µM | > 100 µM | > 59.7 µM | 0.318 µM |  |  |  |  |  |  |  | 
23 | Cc1cnc2sn(-c3ccc([N+](=O)[O-])cc3)c(=O)c2c1 | > 100 µM | > 100 µM | > 100 µM | > 100 µM | > 100 µM | 81.4 µM | > 100 µM |  |  |  |  |  |  |  |  | 
24 | O=C(OC1C2OC(=O)c3cc(O)c(O)c(O)c3Oc3cc4c(c(O)c3O)-c3c(cc(O)c(O)c3O)C(=O)OCC3OC(O)C(OC(=O)c5cc(O)c(O)c(O)c5Oc5cc6c(c(O)c5O)-c5c(cc(O)c(O)c5O)C(=O)OC1C(COC6=O)OC2O)C(OC(=O)c1cc(O)c(O)c(O)c1)C3OC4=O)c1cc(O)c(O)c(O)c1 (stereo unspecified) | 54 µM | 16.2 µM | > 100 µM | > 100 µM | 57.5 µM | 44.4 µM | 50.1 µM | 65.6 µM |  |  |  |  |  |  |  | 
25 | O=S(=O)(O)c1cc(N=Nc2c(O)ccc3ccccc23)ccc1/C=C/c1ccc(N=Nc2c(O)ccc3ccccc23)cc1S(=O)(=O)O | > 100 µM | > 100 µM | > 100 µM | > 100 µM | > 100 µM | > 100 µM | > 100 µM |  |  |  |  |  |  |  |  | 
